Marks after values point to notes of the source that are not given here. Peptide text beside a SMILES is read from it.
Legend:
[1] = Strength of binding to iron, plate assay (x2E b); settings: 1 ug/well peptide complexed to Alexa-488-streptavidin; ferric iron
Method in brief: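 Streptavidin-Alexa-488-complexed peptides, some C-terminally extended by three amino acids, were added at 1 ug/well in PBS to ferric iron-charged NTA-coated plates for 60 min at room temperature. Plates were washed and read by fluorescence (485/525 nm).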

[2] = Iron-binding competition assay with labeled IM3 (x2E c); settings: 375 ng/well labeled IM3 plus 10x unlabeled peptide; no competing peptide = 100
Method: Experiments were conducted by the procedure described above. Ferric iron-charged NTA-coated 96-well plates were used as described. 1 ug/well immodulator peptide complexed to Alexa-488-labeled streptavidin in PBS buffer was added (60 min at room temperature). The plate was washed and counted in a standard fluorometer (excitation/emission: 485/525 nm). The results (fluorescence) show improved iron-binding by the three peptides extended C-terminally by the AVD, (dA)VD, and FVS tripeptides. **p<0.01 vs IM3 control IM3: 200±29; IM4: 45±37**; IM5: 130±77; IM3AVD: 434±29**; IM3dAVD: 418±28**; IM3FVS: 371±33** • (c) Competition assay. The same procedure was used as the preceding experiment, except that 375 ng/well labeled IM3 peptide was used, plus 10× of the indicated unlabeled peptide. ‘No competing peptide’ control value was set to 100. *p<0.05 vs “no peptide” control Competing Peptide/Fluorescence • None: 100±38; IM4: 125±26; IM3: 63±27*; IM5: 40±14*; IM3AVD: 10±28* • (d) Competition assay. The same procedure was used as the preceding experiment, except that labeled IM3AVD peptide was used. **p<0.01 vs “no competing peptide” control • None: 100±9; IM4: 144±44; IM3: 35±16**; IM5: 30±19**; IM3AVD: 9±19** • (e) The same procedure was used as the preceding experiment, except that each peptide was labeled with Alexa-488-labeled streptavidin in PBS buffer and used separately. Binding to IM3 was set to =100. *p<0.05, **p<0.01 vs IM3 control. (Labeled Peptide/Fluorescence) IM1: 1.8±0.4**; IM2: 3.0±1.8**; IM3: 100.0±16.8; IM4: 7.2±1.7*; IM5: 86.7±6.4; IM6: 85.9±14.9; IM3AVD:137.7±11.8*; IM3dAVD:147.4±22.9*; IM3FVS: 101.5±10.5.

[3] = Iron binding of separately labeled peptides (x2E e); settings: each peptide labeled separately; IM3 = 100; ferric iron
Method in brief: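 Fe3+-charged NTA-coated plates were incubated 60 min at room temperature with peptide complexed to Alexa-488-streptavidin in PBS, and fluorescence was read at 485/525 nm. Competition used 375 ng/well labeled IM3 (c) or IM3AVD (d) plus 10× unlabeled competitor, with no-competitor set to 100. Separately labeled peptides (e) were normalized to IM3 = 100.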

[4] = molecular target: T1, AA111-228 DNA-binding domain of RXR-alpha (RXRa-DBD) (Homo sapiens, UniProt P19793); assay: Binding to RXRa-DBD (x3A); settings: 1 ug/well RXRa-DBD, 800 ng/well SA488-labelled peptide; background subtracted
T1 construct: purchased Abcam, Cambridge, MA
T1 sequence (P19793 111-228): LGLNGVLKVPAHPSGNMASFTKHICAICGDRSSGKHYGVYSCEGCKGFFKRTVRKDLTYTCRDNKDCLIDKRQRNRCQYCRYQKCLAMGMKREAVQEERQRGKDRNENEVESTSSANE
Method: Binding of immodulator peptides to AA111-228 DNA-binding domain of RXR-alpha (RXRa-DBD). 1 ug/well recombinant RXRa-DBD (Abcam, Cambridge, MA) was adsorbed to wells of a 96-well plate for 60 minutes at RT, then blocked with 200 uL 1% BSA in PBS buffer overnight. Plate was washed and 800 ng/well Streptavidin-Alexa 488 conjugate (SA488)-labelled IM peptide was added. The plate was incubated for 60 min at room temperature, washed and counted in a standard fluorometer (excitation/emission 485/525 nm). Background (buffer alone) was subtracted.

[5] = FITC-PI(4)P1 binding to plate-bound peptide with calcium (x9A)
Method: Immodulator peptides IM1, IM3 and IM5 (400 ng/well) in PBS were bound to streptavidin-coated 96-well plates at room temperature for 60 minutes, in the presence or absence of 500 uM calcium chloride. Each well also received 200 ng cold PPI plus 10 ng FITC-labeled PI(4,5)P2 or PI(4)P1. The tables below show the relative fluorescence (with/without calcium background) expressed as a percentage of the highest binder, FITC-PI(4,5)P2+cold PI(3,5)P2, which was 2,496 fluorescence units. Background binding without calcium was, in all cases, 200-300 fluorescence units.

[6] = Binding to Echelon PPI Arrays (x9B); design: key: 0=no binding; 1=low binding; 2=medium binding; 3=high binding; settings: 100 pmol PPI spot, colorimetric readout
Description: Binding of immodulator peptides to Echelon PPI Arrays. PPI arrays were purchased from Echelon Biosciences (Sal Lake City, UT) and used according to the manufacturer's recommendations. Colorimetric readout from each 100 pmol PPI spot in the array is expressed as 0=no binding, 1=low binding, 2=medium binding and 3=high binding. […] In addition, IM3 and IM5 show slight binding to PI(3,4,5)P3.

A375 cells = assay: A375 cell viability, CellTiterGlo (x10A); format: cell-based; settings: 72 hours
Method in brief: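 Peptides at 2 uM were added to A375 cells (2,000/well, DMEM with 10% FBS) 24 h after seeding, in quadruplicate. Following 72 h at 37 °C, CellTiterGlo luminescence was read after 10 min, reported as percent survival.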

N=C(N)NCCC[C@H](NC(=O)CNC(=O)[C@H](CCCCN)NC(=O)[C@H](CO)NC(=O)[C@@H]1CCCN1C(=O)[C@H](CCCNC(=N)N)NC(=O)[C@H](CS)NC(=O)[C@H](CCC(N)=O)NC(=O)[C@H](CCCCN)NC(=O)[C@H](CCCCN)NC(=O)[C@H](CCCCN)NC(=O)[C@H](Cc1ccc(O)cc1)NC(=O)[C@H](Cc1ccccc1)NC(=O)CNC(=O)[C@H](CCCCN)NC(=O)[C@@H](N)CCCCN)C(=O)N[C@@H](CCCCN)C(=O)N[C@@H](CCCNC(=N)N)C(=O)NCC(=O)N[C@@H](Cc1ccccc1)C(=O)N[C@@H](CS)C(=O)N[C@@H](Cc1c[nH]c2ccccc12)C(=O)O [IM3] (H-KKGFYKKKQCRPSKGRKRGFCW-OH; N-terminus and C-terminus assumed)
fluorescence (iron binding) [1]: 200±29 | fluorescence of labeled IM3 with competing peptide [2]: 63±27 | fluorescence of labeled peptide [3]: 100.0±16.8 | fluorescence [4]: 6,572±129 | relative fluorescence, FITC-PI(4)P1 bound ([5]; cold PPI: 3,4,5-P3): 1.2 percentage of the highest binder | relative fluorescence, FITC-PI(4)P1 bound ([5]; cold PPI: 3,4-P2): 2.4 percentage of the highest binder | relative fluorescence, FITC-PI(4)P1 bound ([5]; cold PPI: 3,5-P2): 5.6 percentage of the highest binder | relative fluorescence, FITC-PI(4)P1 bound ([5]; cold PPI: 3-P1): 2.5 percentage of the highest binder | relative fluorescence, FITC-PI(4)P1 bound ([5]; cold PPI: 4,5-P2): 0.1 percentage of the highest binder | relative fluorescence, FITC-PI(4)P1 bound ([5]; cold PPI: 4-P1): 2.4 percentage of the highest binder | relative fluorescence, FITC-PI(4)P1 bound ([5]; cold PPI: 5-P1): 1.9 percentage of the highest binder | relative fluorescence, FITC-PI(4)P1 bound ([5]; cold PPI: None): 2.5 percentage of the highest binder | binding to PI spot [6]: 0 | binding to PI(3,4,5)P3 spot [6]: 1 | binding to PI(4)P1 spot [6]: 0 | binding to PI(4,5)P2 spot [6]: 3 | percent survival of A375 cells (A375 cells; peptide 2 uM + Kin1400 4 uM (RIG-I agonist)): 62.2** percent | percent survival of A375 cells (A375 cells; peptide 2 uM, Buffer): 100.3%

Source: patent US12102685B2, “Immodulator peptides covalently modified with small molecules” (priority 2020, dated 2024)
